target: T1, E. coli OGDHc E1 (Escherichia coli, UniProt P0AFG3); test: E. coli OGDHc E1 inhibitory activity assay (DCPIP reduction); assay type: biochemical; details: [Compound] = 250 μM, [ThDP] = 50 μM
T1 sequence (P0AFG3 1-933): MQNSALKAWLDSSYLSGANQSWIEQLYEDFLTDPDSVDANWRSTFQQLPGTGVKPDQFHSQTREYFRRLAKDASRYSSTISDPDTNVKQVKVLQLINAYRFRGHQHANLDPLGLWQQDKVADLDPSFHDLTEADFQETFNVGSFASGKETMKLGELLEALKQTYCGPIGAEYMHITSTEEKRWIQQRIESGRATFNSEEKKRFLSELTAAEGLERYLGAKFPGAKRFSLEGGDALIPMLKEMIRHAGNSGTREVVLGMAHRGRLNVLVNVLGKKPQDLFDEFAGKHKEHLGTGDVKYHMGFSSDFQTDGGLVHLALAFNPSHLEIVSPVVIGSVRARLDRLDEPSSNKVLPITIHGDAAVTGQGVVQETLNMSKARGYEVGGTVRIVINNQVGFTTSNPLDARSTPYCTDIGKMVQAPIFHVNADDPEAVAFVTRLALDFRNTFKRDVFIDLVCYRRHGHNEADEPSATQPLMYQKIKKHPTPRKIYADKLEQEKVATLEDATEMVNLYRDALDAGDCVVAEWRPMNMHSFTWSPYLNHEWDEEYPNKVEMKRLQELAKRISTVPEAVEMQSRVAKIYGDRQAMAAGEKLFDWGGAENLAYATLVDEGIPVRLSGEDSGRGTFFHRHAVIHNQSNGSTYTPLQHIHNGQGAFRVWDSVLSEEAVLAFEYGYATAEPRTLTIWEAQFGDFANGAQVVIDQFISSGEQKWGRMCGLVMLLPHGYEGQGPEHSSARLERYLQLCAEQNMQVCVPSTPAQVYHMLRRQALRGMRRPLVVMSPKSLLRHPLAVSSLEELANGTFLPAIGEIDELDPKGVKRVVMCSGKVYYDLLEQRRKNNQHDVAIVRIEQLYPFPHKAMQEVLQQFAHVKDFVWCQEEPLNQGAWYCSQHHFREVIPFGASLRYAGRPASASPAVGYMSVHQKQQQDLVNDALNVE
Description: E. coli OGDHc E1 inhibitory activity assay. E. coli OGDHc E1 was from our previous work 5 and had been donated by R. Frank. Its activity was determined by monitoring DCPIP reduction at 600 nm using a microplate reader (CLARIOstar) and conducted as described 1,2 with some modifications. The percentage inhibition of compounds against E. coli OGDHc E1 was assayed at a final concentration of 250 µM. The reaction buffer (50 mM KH 2PO4 and 2 mM MgCl 2, pH 7) contained 50 µM ThDP (or 125 µM in the competition assay), 0.5 mM DCPIP, and 6.7 mg/ml E. coli OGDHc E1. The reaction mixture was preincubated at 37 °C for 60 min, then reaction was initiated by adding α-ketoglutarate to a final concentration of 10 mM. To determine the IC 50, ThDP concentration was lowered to 30 µM, and inhibitor concentration was varied (2-1000 µM). Specific activity was calculated using the molar […]
for the PDHc E1 assay. […] 5 […]

Row | Compound | inhibition at 250 µM [%]
1 | COc1ccc(-c2cn(CCCCc3cn(Cc4cnc(C)nc4N)nn3)nn2)cc1 [Compound 17c] | < 20
2 | Cc1ncc(Cn2cc(CCn3cc(-c4ccc(F)cc4)nn3)nn2)c(N)n1 [Compound 16a] | 25 ± 4
3 | Cc1ncc(Cn2cc(CCNS(=O)(=O)C(F)(F)F)nn2)c(N)n1 [Compound 18a] | 48 ± 2
4 | Cc1ncc(Cn2cc(CCC(=O)Nc3ccccc3N)nn2)c(N)n1 [Compound 26a] | 63 ± 2
5 | Cc1ncc(Cn2cc(CCCCNS(=O)(=O)C(F)(F)F)nn2)c(N)n1 [Compound 18c] | 58 ± 4
6 | Cc1ncc(Cn2cc(CCCn3cc(-c4ccccc4)nn3)nn2)c(N)n1 [Compound 15b] | < 20
7 | Cc1ncc(Cn2cc(CCO)nn2)c(N)n1 [Compound 9a] | 57 ± 4
8 | COc1cccc(C(=O)NCCCCc2cn(Cc3cnc(C)nc3N)nn2)c1 [Compound 21c] | 25 ± 3

same assay, conditions: increased ThDP: [Compound] = 250 μM, [ThDP] = 125 μM

Row | Compound | inhibition at 250 µM [%]
9 | COc1ccc(-c2cn(CCCCc3cn(Cc4cnc(C)nc4N)nn3)nn2)cc1 [Compound 17c] | < 20
10 | Cc1ncc(Cn2cc(CCn3cc(-c4ccc(F)cc4)nn3)nn2)c(N)n1 [Compound 16a] | < 20
11 | Cc1ncc(Cn2cc(CCCn3cc(-c4ccccc4)nn3)nn2)c(N)n1 [Compound 15b] | < 20

tested on: P. falciparum strain 3D7; test: Anti-plasmodial activity assay (SYBR-Safe); assay type: cell-based, Plasmodium falciparum; details: Plasmodium falciparum, 3D7, 3D7, [Thiamine] = 2.97 μM; read-out: IC50 of Suppression of P. falciparum proliferation, [Thiamine] = 2.97 μM
Description: Next the effects of the thiamine/ThDP analogues on in vitro proliferation of the 3D7 strain of P. falciparum were determined. […] Parasite proliferation was measured by SYBR-Safe assay of parasite DNA.[11],[15]
(§1) Cell-based assays (Results)
(§2) Anti-plasmodial activity assay. This study used human malaria parasite P. falciparum strain 3D7 (chloroquine-sensitive) and the same strain expressing an extra copy of TPK with a GFP-tag ( PfTPK-GFP) generated as previously described. 9 The intraerythrocytic stage of the parasites were maintained essentially as previously described. 10 Compounds were tested at concentrations up to a highest final […]
(§3) were prepared in dimethyl sulfoxide (DMSO) followed by dilution in RPMI 1640 medium in the absence of thiamine or in the presence of 2.97 µM (or 297 µM) thiamine. The final concentration of DMSO that the parasites were exposed to never exceeded 0.05%. Two-fold serial dilutions were then performed, with each concentration tested in triplicate. The assay was performed as described 11 with some modifications. Experiments were initiated with parasites in the ring-stage, a parasitemia level of 0.5% and a haematocrit of 2%. Chloroquine (0.5 µM) was used as the positive control ( i.e. complete inhibition of parasite proliferation), and parasites maintained in the absence of any inhibitor represented 100% parasite proliferation. The final volume in each well was 200 µL. Plates were incubated at 37 °C, under an atmosphere of 96% nitrogen, 3% carbon dioxide and 1% oxygen. Parasite proliferation was measured by performing SYBR-Safe assay. 12 The concentration at which the compound suppresses […]
Excel and analysed by non-linear regression plot using GraphPad Prism. The data were averaged from three independent experiments. […]

Row | Compound | IC50 [µM]
12 | COc1ccc(-c2cn(CCCCc3cn(Cc4cnc(C)nc4N)nn3)nn2)cc1 [Compound 17c] | 62 ± 7
13 | Cc1ncc(Cn2cc(CCn3cc(-c4ccc(F)cc4)nn3)nn2)c(N)n1 [Compound 16a] | > 200

same assay, conditions: Plasmodium falciparum, 3D7, 3D7, [Thiamine] = 297 μM; read-out: IC50 of Suppression of P. falciparum proliferation, [Thiamine] = 297 μM

Row | Compound | IC50 [µM]
14 | COc1ccc(-c2cn(CCCCc3cn(Cc4cnc(C)nc4N)nn3)nn2)cc1 [Compound 17c] | 69 ± 9
15 | Cc1ncc(Cn2cc(CCn3cc(-c4ccc(F)cc4)nn3)nn2)c(N)n1 [Compound 16a] | > 200

same assay, conditions: Plasmodium falciparum, 3D7, 3D7, thiamine-free medium; read-out: IC50 of Suppression of P. falciparum proliferation, Thiamine-free

Row | Compound | IC50 [µM]
16 | COc1ccc(-c2cn(CCCCc3cn(Cc4cnc(C)nc4N)nn3)nn2)cc1 [Compound 17c] | 44 ± 2
17 | Cc1ncc(Cn2cc(CCn3cc(-c4ccc(F)cc4)nn3)nn2)c(N)n1 [Compound 16a] | > 200

tested on: not listed separately; test: in vitro; assay type: cell-based, human; details: human
Description: as §1, §2, §3
(§4) Excel and analysed by non-linear regression plot using GraphPad Prism. The data were averaged from three independent experiments.
(§5) Cytotoxicity assay. This study used HFF cells (human foreskin fibroblasts) as described 13 with some modifications. The HFF cells were seeded in 96-well plates at a density of about 13 x 10^4 cells/mL.
(§6) Plates were incubated at 37 °C in a humidified 5% carbon dioxide incubator for 96 h. A sample of the supernatant (150 µL) was then carefully aspirated from each well and discarded. The plates were then stored at -80 °C. SYBR- Safe assay was used. The plates were thawed, SYBR-Safe lysis solution (150 µL) was added to each well and mixed via pipetting to ensure the HFF cells were detached from the plate and lysed. The plates were then processed as described for the anti-plasmodial assay.

Row | Compound | IC50 at 96 h [µM]
18 | COc1ccc(-c2cn(CCCCc3cn(Cc4cnc(C)nc4N)nn3)nn2)cc1 [Compound 17c] | 46 ± 7

tested on: HFF cells; test: in vitro; assay type: cell-based, human; details: IC50 (thiamine-free) vs HFF cytotoxicity
Description: as §1, §2, §3, §4, §5, §6

Row | Compound | Selectivity Index
19 | COc1ccc(-c2cn(CCCCc3cn(Cc4cnc(C)nc4N)nn3)nn2)cc1 [Compound 17c] | 1.1

tested on: P. falciparum 3D7 transfected with an empty plasmid; test: Anti-plasmodial activity, 3D7 transfected with an empty plasmid; assay type: cell-based; details: Plasmodium falciparum, 3D7, read-out: IC50 anti-plasmodial activity, empty plasmid
Description: as §1, §2
as §3, with “Plates were incubated at 37 °C, under an atmosphere of 96% nitrogen, 3% carbon dioxide and 1% oxygen.” left out, “assay.” for “assay. 12 The concentration at which the compound suppresses”
(§7) Excel and analysed by non-linear regression plot using GraphPad Prism. […]

Row | Compound | IC50 [µM]
20 | COc1ccc(-c2cn(CCCCc3cn(Cc4cnc(C)nc4N)nn3)nn2)cc1 [Compound 17c] | 38 ± 7

tested on: P. falciparum 3D7 expressing PfTPK-GFP; test: Anti-plasmodial activity, 3D7 expressing PfTPK-GFP; assay type: cell-based; details: Plasmodium falciparum, 3D7, read-out: IC50 anti-plasmodial activity, PfTPK-GFP
Description: as §1, §2
as §3, with “Plates were incubated at 37 °C, under an atmosphere of 96% nitrogen, 3% carbon dioxide and 1% oxygen.” left out, “assay.” for “assay. 12 The concentration at which the compound suppresses”
as §7

Row | Compound | IC50 [µM]
21 | COc1ccc(-c2cn(CCCCc3cn(Cc4cnc(C)nc4N)nn3)nn2)cc1 [Compound 17c] | 44 ± 9

Reference: PMC10184313, “Inhibition of Thiamine Diphosphate-Dependent Enzymes by Triazole-Based Thiamine Analogues” (ACS Medicinal Chemistry Letters, 2023)
